{
  "source": "paper PMC12406652",
  "about": "(Antimicrobial Agents and Chemotherapy, 2025)",
  "system": "healthy participants",
  "assay": "Safety and tolerability (treatment-emergent adverse events), studies VNRX-7145-101 and VNRX-7145-102",
  "format": "in vivo, human",
  "procedure": "Safety was assessed via ongoing monitoring of adverse events, symptom-directed physical examinations, and changes in clinical laboratory measures, vital signs, and ECGs.",
  "data": [
    {"compound": "CCC(=O)N[C@H]1Cc2cccc(C(=O)OCOC(=O)C(CC)CC)c2OB1O", "note": "[Ledaborbactam etzadroxil]", "values": [
      {"measurement": "Participants with fatigue (TEAE)", "setting": "LED-E-dosed participants", "value": 9.2, "unit": "%"},
      {"measurement": "Participants with headache (TEAE)", "setting": "LED-E-dosed participants", "value": 20.2, "unit": "%"},
      {"measurement": "Tolerability", "setting": "all dose levels, alone or in combination with CTB", "value": "well tolerated"},
      {"measurement": "Participants with gastrointestinal TEAEs", "setting": "n = 109, pooled studies, all mild", "value": 27.5, "unit": "%"},
      {"measurement": "Serious or severe TEAEs", "setting": "single or multiple doses, alone or with CTB", "value": "no serious or severe TEAEs"}
    ]}
  ]
}
